Data on three substances can be found in patent US7259136B2, “Compositions and methods for treating peripheral vascular disease” (Amylin Pharmaceuticals, Inc., priority 1999, dated 2007).

Where no end group is shown, it is not given here.

Experiment [1] deals with pancreas. Particulars: cited from earlier work.
Experiment [2] concerns Cardiac Muscle Ischemia and Reperfusion. Nature of the experiment: Left circumflex coronary occlusion (10 min) and reperfusion in dogs. It is filed as in vivo. The protocol:
Two dogs were studied at baseline before, during, and for 6 hours after a 10-minute complete left circumflex coronary (LCx) occlusion. Each dog underwent occlusion/reperfusion in the presence and absence of GLP-1 infusion for […], beginning 1 minute prior to reperfusion.

Experiment [3] has the same test system. Nature of the experiment: LAD coronary artery occlusion (25 min) and reperfusion (2 h) in anesthetized rats. In kind it is in vivo, Wistar rats. The protocol:
Wistar rats were anesthetized with thiopentone sodium. The left anterior descending (LAD) coronary artery was occluded. After 25 minutes of occlusion, reperfusion was allowed for 2 hours. This animal model has been described previously. Zacharowski, et al. […] Br. J. Pharmacol. 128, 945–952.
GLP-1 (1.5 microgram/kg/min) was infused into anesthetized rats (n=10), commencing 10 minutes prior to reperfusion and continuing throughout the 2-hour reperfusion. Controls were sham operated with no occlusion (n=7), LAD occlusion+reperfusion+administration of saline (n=12), and LAD occlusion and reperfusion with vehicle (10 mM sodium acetate, 5.05% D-mannitol, pH 4.5, 1.5 mL/kg/hour; n=10).
Following reperfusion, the coronary artery was reoccluded, and Evans Blue dye (4 ml, 2% w/v) was injected into the left ventricle of the heart via a right carotid artery cannula. Evans Blue stains the perfused myocardium, while the occluded vascular bed remains uncolored. Animals were euthanized by anesthetic overdose and the hearts were removed for examination. Hearts were sectioned and the right ventricular wall was removed. The area at risk (pink) was separated from the non-ischemic tissue (blue). The area at risk (pink) was then cut into smaller pieces and stained with p-nitroblue tetrazolium (NBT; 0.5 mg/ml) for 20 min. at 37° C. In the presence of intact dehydrogenase enzyme systems (viable myocardium), NBT forms a dark blue compound. Areas of necrosis lack the enzyme and remain unstained. Tissue was separated according to staining and weighed to determine infarct size as a percentage of the area at risk.

In the case of “GLP-1(9-36)amide: DPP IV inactivation product of GLP-1(7-36)amide, SEQ ID NO:6 (EGTFTSDVSSYLEGQAAKEFIAWLVKGR-NH2)”, the “stimulation of production or release of insulin from the pancreas” value in experiment [1] was “do not stimulate production or release of insulin”.
With “GLP-1(9-37): DPP IV inactivation product of GLP-1(7-37), SEQ ID NO:5 (EGTFTSDVSSYLEGQAAKEFIAWLVKGRG; mammalian)”, the “stimulation of production or release of insulin from the pancreas” value in experiment [1] is on record as “do not stimulate production or release of insulin”.
Turning to glucagon-like peptide-1 [GLP-1], the stunning period result in experiment [2] (dogs, GLP-1 during reperfusion after subcritical ischemia) is listed as “significantly reduced the stunning period”. Also, in experiment [2] (two dogs, GLP-1 infusion for 24 hours beginning 1 minute prior to reperfusion, after 10 minutes of coronary artery occlusion), the “recovery of ventricular wall regional dysfunction” value was “enhanced the recovery of ventricular wall regional dysfunction”. For the same substance, in experiment [3] (GLP-1 1.5 microgram/kg/min infusion from 10 min prior to reperfusion throughout 2-hour reperfusion, n=10), the “infarct size as a percentage of the area at risk” value is recorded as 31+/−4 % of the area at risk. Moreover, the “reduction in infarct size compared with the vehicle group” value in experiment [3] (GLP-1 1.5 microgram/kg/min infusion, p<0.05) is given as “approximately 33%”. Also, the hemodynamics result in experiment [3] (GLP-1 infusion) was “significantly improved hemodynamics”.
